Results: PMC5335602, “Protein-ligand binding affinity determination by the waterLOGSY method: An optimised approach considering ligand rebinding” (Scientific Reports, 2017)

Tests used:
Format in all cases: binding
[1] = biological target: T1, human serum albumin (HSA) (Homo sapiens, UniProt P02768); assay: waterLOGSY NMR titration ([…] HSA, […] s mixing time); settings: read-out: KD^obs/μM / 25 μM HSA
T1 construct: gene ALB

[2] = biological target: T2, bovine serum albumin (BSA) (Bos taurus, UniProt P02769); assay: waterLOGSY NMR titration ([…] BSA)
T2 construct: gene ALB

α-chymotrypsin = biological target: T3, α-chymotrypsin (Bos taurus, UniProt P00766); assay: […] NMR chemical shift titration; waterLOGSY titration
T3 construct: from bovine pancreas, Type II

T2 sequence (P02769 25-607): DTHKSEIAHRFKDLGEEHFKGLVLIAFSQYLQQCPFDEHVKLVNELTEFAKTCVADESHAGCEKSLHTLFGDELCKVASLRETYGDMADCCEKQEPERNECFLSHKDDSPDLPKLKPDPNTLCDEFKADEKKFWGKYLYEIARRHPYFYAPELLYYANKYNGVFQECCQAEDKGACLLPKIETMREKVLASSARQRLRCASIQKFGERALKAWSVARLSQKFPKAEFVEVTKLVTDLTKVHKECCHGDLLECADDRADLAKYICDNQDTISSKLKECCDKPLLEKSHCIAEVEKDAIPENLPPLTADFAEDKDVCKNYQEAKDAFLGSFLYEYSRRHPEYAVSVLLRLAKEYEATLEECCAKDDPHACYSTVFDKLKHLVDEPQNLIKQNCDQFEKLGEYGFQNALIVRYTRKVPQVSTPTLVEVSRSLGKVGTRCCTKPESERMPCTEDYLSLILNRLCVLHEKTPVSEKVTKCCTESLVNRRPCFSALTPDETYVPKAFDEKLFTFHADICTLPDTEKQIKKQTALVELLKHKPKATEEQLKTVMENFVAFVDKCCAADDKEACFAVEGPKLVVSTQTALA
T1 sequence (P02768 25-609): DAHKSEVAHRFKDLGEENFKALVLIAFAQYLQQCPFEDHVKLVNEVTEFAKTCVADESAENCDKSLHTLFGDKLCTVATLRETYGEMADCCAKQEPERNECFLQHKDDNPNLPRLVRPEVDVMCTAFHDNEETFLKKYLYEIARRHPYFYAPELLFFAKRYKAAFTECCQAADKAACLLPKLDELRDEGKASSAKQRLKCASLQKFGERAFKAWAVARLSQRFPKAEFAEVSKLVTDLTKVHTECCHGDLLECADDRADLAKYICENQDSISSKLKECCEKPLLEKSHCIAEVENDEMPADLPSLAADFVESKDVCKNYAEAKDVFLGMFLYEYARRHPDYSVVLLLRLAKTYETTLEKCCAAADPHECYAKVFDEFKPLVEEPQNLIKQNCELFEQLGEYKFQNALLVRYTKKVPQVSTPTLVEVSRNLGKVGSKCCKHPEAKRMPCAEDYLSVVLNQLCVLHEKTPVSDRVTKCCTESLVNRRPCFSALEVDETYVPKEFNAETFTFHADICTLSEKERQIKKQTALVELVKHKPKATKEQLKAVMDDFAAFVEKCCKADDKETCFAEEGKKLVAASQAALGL

Kd (α-chymotrypsin) [µM] | Compound | Kd [1] [µM] | Kd [2] [µM]
– | N[C@@H](Cc1c[nH]c2ccccc12)C(=O)O [L-tryptophan] | 185 ± 50 | ~120
630 | OB(O)c1cccc(F)c1 [3-Fluorophenylboronic acid] | – | –
